Ends that are not written are not given here.
How the values were obtained:
[1] = in vitro; type: cell-based, murine; settings: mouse
Method: Cell viability of synthetic peptides on the growth of RAW264.7 cells was measured using the methyl thiazolyl tetrazolium (MTT) assay after 48 h. Briefly, exponentially growing macrophages RAW264.7 cells were mechanically scraped, plated at a density of 7×10^3 cells in 100 μl were seeded into each well of a 96-well plate then incubated for 12 h at 37° C. under 5% CO2, and then the cells are treated with test peptides: IS 111 ([…]) or dexamethasone ([…]) cells were incubated at 37° C. in the presence of 5% CO2 for 42 h. After incubation, the morphology of cells was examined under a microscope. Following incubation, MTT was added to the cells (20 μL at 5 mg/mL MTT dissolved in 1×PBS) and incubated for 4 hours in the presence of 5% CO2 at 37° C. Formazan crystals were dissolved by the addition of 100 μL of 100% DMSO per well. Plates were then gently swirled for 5 min at room temperature to dissolve the precipitate. Absorbance was monitored at 575 nm using a microplate reader. Maximum cytotoxicity (100%) was determined by cells incubated with 1% Triton X-100; PBS was used as a negative control. Cells without treatment were considered as control. The average absorbance for each sample group was used to evaluate cell viability.
Optical density (O.D.) was calculated as the difference between the absorbance at the reference wavelength and that at the test wavelength. The relative cell viability was determined by the amount of MTT converted to the insoluble formazan salt. The data were expressed as the mean percentage of viable cells when compared with untreated cells (control). The half maximal growth inhibitory concentration (IC50) value was calculated from the line equation of the dose-dependent curve of each compound. The results were compared with the cytotoxic activity of dexamethasone, a known anti-inflammatory drug. […] Percentages of cell viability and LC50 of cells were calculated: Percent cell viability was calculated as (O.D. of drug-treated sample/control O.D.)×100. The data were expressed as percent cell viability compared with control (dimethyl sulfoxide/NS). The experiment was carried out in four samples of each concentration.
The percentages of cell viability and LC50 of cells were calculated by using the formula below.
Where Absorbance control is the DMSO 0.1%-treated cell absorbance, and Absorbance sample is the test sample-treated cell absorbance. LC50 values were derived from dose-response curves, and data were expressed as the mean of three independent experiments. Statistical analyses involved Student's t-test and one-way ANOVA.
The test peptide IS 111 cytotoxic effects on RAW 264.7 mouse […] were determined by MTT assay. […] Cell viability was measured by MTT assay based on the conversion of yellow tetrazolium salt to form a purple formazan product. The viability of the RAW 264.7 cells can be seen on table 21.

[2] = system: E. coli ATCC 8739-induced septic peritonitis; experiment: E. coli-induced septic peritonitis model; type: in vivo, BALB/c mice; settings: for Mice alive: 18 h after infection
Method: Bacterial strain of E. coli ATCC 8739™ were maintained in our laboratory and used for the mouse sepsis model. The strain was previously stored at −80° C. in a Luria Bertani (LB) broth with 15-20% of glycerol. Single colonies from viable, growing Luria-Bertani (LB) agar plates were transferred to sterile liquid LB medium (containing 10 g tryptone, 10 g NaCl, and 5 g yeast extract per liter) and cultivated aerobically in 50-ml volumes at 37° C. in an orbital shaker for 24 h at 37° C. These cultures were transferred to 500 ml of fresh LB medium for another 12 h. The optical density (OD) of the suspension was adjusted to 0.3 (exponential phase) using a spectrophotometer. Such OD corresponds to*10^8 colony-forming units (CFU)/mL. When bacteria were in the log phase of growth, the suspension was harvested by centrifugation at 1500×g for 5 min at 4° C.; the supernatant was discarded and washed and resuspended three times in phosphate-buffered saline (PBS) at pH 7.4 and mixed by vortexing to achieve a concentration of approximately 1×10^8 colony-formation units (CFU) per milliliter. Finally, the bacterial suspensions were incubated in a water bath at 100° C. for 30 min to inactivate the cells. One hundred microliters of the suspension were serially diluted with sterile saline solution, plated on sheep blood agar plates, and incubated for 18 hours for determination of the bacterial concentration. The rest of the culture suspension was stored at 4° C. until use. Just before the intraperitoneal injection, the bacterial suspension was adjusted to a concentration of 1×10^8 colony forming units (CFU) per 0.1 mL with normal saline solution/PBS.
This study was carried out within an animal containment BSL2 facility. The animals were infected with suspensions containing […] E. coli 8739™ (200 μL) inoculated intraperitoneally. The day of challenge was designated as day 1 of the experiment and considers it as 0 hr. [Wendy E. Walker, 2021; Komal Dolasia et al., 2018]
Mice received an intraperitoneal injection of E. coli ATCC 8739, 5.0×10^8 CFU per mouse in 200 μL to induce septic peritonitis as mentioned above. After 2 h of the E. coli infection, mice (n=6) were treated intravenously with two test doses of IS 111 (0.6 mg/kg & 1.2 mg/kg) in treatment groups. Control animals received 200 μL of normal saline. […] The figure was adopted and modified according to the present study. [Henrique G et al., 2020].
In all the animal experiments, IS 111 were administered by intravenous injections respectively; According to the clinical dosage regimen, IS 111 was repeatedly administered at 2 h after the intraperitoneal injection of heat-killed E. coli. The survival of mice was monitored for up to 5 days. In each group the half of the animals were killed after 18 hours. And in other subset of the animals, IS 111 at two doses 0.6 & 1.2 mg/kg were injected IV daily for 3 days following infection. The survival of mice was monitored for up to 18 h and the other half of the animals are continued for the survival monitored up to 5 days.
In the survival study, survival rates were determined over a period of 5 d with assessment every 12 h, by setting the day 0 from 0 to 18 h after surgery and continuing observation until […]. In each group the half of the animals were killed after 18 hours, in another half subset of animals was followed for 5 days for survival assessment after sepsis induction to verify mortality rates. IS 111 at two doses 0.6 & 1.2 mg/kg were injected IV daily 24 h for 3 days following the E. coli Infection.
The physical activity of the mice was recorded independently by two independent observers who were blinded to treatment before sampling as previously described. In this study predetermined grading system was used with a scale of 1 (healthy) to 5 (agony). […]

[3] = 0.6 mg/kg IV, 18 hr after induction of septic shock
[4] = 18 h, comparable to control mice
[5] = serum 18 h, therapeutic administration

FAKKFAK [IS 111, Phe-Ala-Lys-Lys-Phe-Ala-Lys]
viability at 48 h, 1.5625 μg/mL [1]: 84.5%
viability at 48 h, 3.125 μg/mL [1]: 91.5%
viability at 48 h, 6.25 μg/mL [1]: 90.2%
viability at 48 h, 12.5 μg/mL [1]: 99.7%
viability at 48 h, 25 μg/mL [1]: 96.4%
viability at 48 h, 50 μg/mL [1]: 95%
viability at 48 h, 100 μg/mL [1]: 91.4%
Lung and liver injuries (histopathology) ([2]; 0.6 mg/kg IV, 18 h): reduces the injuries to moderate extent
Activity upon stimulation [2, 3]: Sluggish activity. Animals
Conjunctivitis [2, 3]: Mild (Usually serous
Hair coat [2, 3]: Moderately ruffled coats
Mice alive ([2]; 0.6 mg/kg): 50%
Lymphocyte numbers [2, 4]: restored
WBC numbers [2, 4]: restored
Neutrophil numbers ([2]; 18 h, vs septic mice): marginally higher
Mice alive ([2]; […]): 80%
Survival ([2]; after 7 days of infection, IS 111 treatment groups): 80%
IL-1b level [2, 5]: significantly reduce
IL-6 level [2, 5]: significantly reduce
IL-12 p70 level [2, 5]: significantly reduce
TNF-α level [2, 5]: significantly reduce
Reduction of mortality ([2]; vs diseased control animals (normal saline)): 80%
